Results on 26 molecules are retold here after US20090062251A1, “Novel Compounds 002” (ASTRAZENECA AB, priority 2007, published 2009).

SMILES strings stand for the structures. pEC50: −log10 of the molar value.

In the experiment the target is T1, Human CB1 receptor (hCB1) (Homo sapiens, UniProt P21554).
T1 construct: purchased Receptor Biology
Kind of experiment: hCB1 GTPγS binding. It is filed as biochemical. Particulars: for pEC50: hCB1 membranes, GTPγ35S, 10-point dose-response; for Emax / hCB1 EMax: maximal stimulated binding determined with 10 μM Win 55,212-2. Here is the method: hCB1 and hCB2 GTPγS Binding
Human CB1 receptor from Receptor Biology (hCB1) or human CB2 receptor membranes (BioSignal) are thawed at 37° C., passed 3 times through a 25-gauge blunt-end needle and diluted in the GTPγS binding buffer (50 mM Hepes, 20 mM NaOH, 100 mM NaCl, 1 mM EDTA, 5 mM MgCl2, pH 7.4, 0.1% BSA). […] The basal and maximal stimulated binding is determined in absence and presence of 1 μM (hCB2) or 10 μM (hCB1) Win 55, 212-2 respectively. The membranes are pre-incubated for 5 minutes with 56.25 μM (hCB2) or 112.5 μM (hCB1) GDP prior to distribution in plates (15 μM (hCB2) or 30 μM (hCB1) GDP final). The plates are vortexed and incubated for 60 minutes at room temperature, filtered on Unifilters GF/B (presoaked in water) with the Tomtec or Packard harvester using 3 ml of wash buffer (50 mM Tris, 5 mM MgCl2, 50 mM NaCl, pH 7.0). The filters are dried for 1 hour at 55° C. The radioactivity (cpm) is counted in a TopCount (Packard) after adding 65 μl/well of MS-20 scintillation liquid. Antagonist reversal studies are done in the same way except that (a) an agonist dose-response curve is done in the presence of a constant concentration of antagonist, or (b) an antagonist dose-response curve is done in the presence of a constant concentration of agonist.

T1 sequence (P21554 whole entry): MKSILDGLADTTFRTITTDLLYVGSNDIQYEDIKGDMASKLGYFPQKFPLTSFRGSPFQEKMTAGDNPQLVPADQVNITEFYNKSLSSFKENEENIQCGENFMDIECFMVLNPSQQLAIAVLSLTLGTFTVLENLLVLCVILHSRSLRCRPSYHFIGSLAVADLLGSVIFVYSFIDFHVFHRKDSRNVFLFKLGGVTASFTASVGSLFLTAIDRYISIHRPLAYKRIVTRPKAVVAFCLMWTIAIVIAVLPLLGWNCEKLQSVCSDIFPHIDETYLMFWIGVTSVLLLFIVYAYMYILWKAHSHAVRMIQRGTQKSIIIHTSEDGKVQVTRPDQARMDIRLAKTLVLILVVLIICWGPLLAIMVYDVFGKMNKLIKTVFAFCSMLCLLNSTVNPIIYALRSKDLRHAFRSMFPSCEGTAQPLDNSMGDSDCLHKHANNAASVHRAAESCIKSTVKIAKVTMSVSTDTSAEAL

`CCNC(=O)CN(CC)C(=O)c1ccc2c(c1)c1c(n2CC(=O)N(CC)CC)CCC(C2CCOCC2)C1` (stereo not shown) [9-(diethylcarbamoylmethyl)-N-ethyl-N-(ethylcarbamoylmethyl)-6-(oxan-4-yl)-5,6,7,8-tetrahydrocarbazole-3-carboxamide]: the pEC50 was < 5.00 and the Emax was > 87%. `CCS(=O)(=O)n1c2c(c3cc(C(=O)N4CCC[C@@H]4C(=O)NCCF)ccc31)CC(C1CCOCC1)CC2` (stereo partly drawn) [(2R)-1-[9-ethylsulfonyl-6-(oxan-4-yl)5,6,7,8-tetrahydrocarbazole-3-carbonyl]-N-(2-fluoroethyl)pyrrolidine-2-carboxamide]: the pEC50 is 5.77 and the Emax is > 107%.

As for `Cn1c2c(c3cc(C(=O)N4CCC[C@H](C(=O)NC5CC5)C4)ccc31)CC(C1CCOCC1)CC2` (stereo partly drawn) [(3S)—N-cyclopropyl-1-[9-methyl-6-(oxan-4-yl)5,6,7,8-tetrahydrocarbazole-3-carbonyl]piperidine-3-carboxamide], the Emax amounted to 118%. Molecule `Cn1c2c(c3cc(C(=O)N4CC[C@H](C(=O)NC5CC5)C4)ccc31)CC(C1CCOCC1)CC2` (stereo partly drawn) [(3S)—N-cyclopropyl-1-[9-methyl-6-(oxan-4-yl)5,6,7,8-tetrahydrocarbazole-3-carbonyl]pyrrolidine-3-carboxamide] yielded an Emax of 134%. In turn, `CN(CCCC(=O)Nn1cccc1)C(=O)c1ccc2c(c1)c1c(n2C)CC[C@@H](C2CCOCC2)C1` [(R)—N-(4-(1H-Pyrrol-1-ylamino)-4-oxobutyl)-N,9-dimethyl-3-(tetrahydro-2H-pyran-4-yl)-2,3,4,9-tetrahydro-1H-carbazole-6-carboxamide] gave a pEC50 of 5.98 and an Emax of 89%. The molecule `CN(C)NC(=O)CCCN(C)C(=O)c1ccc2c(c1)c1c(n2C)CC[C@@H](C2CCOCC2)C1` [(R)—N-(4-(2,2-Dimethylhydrazinyl)-4-oxobutyl)-N,9-dimethyl-3-(tetrahydro-2H-pyran-4-yl)-2,3,4,9-tetrahydro-1H-carbazole-6-carboxamide] gave a pEC50 of 6.04 and an Emax of 96%.

In turn, `COCCNC(=O)CCCN(C)C(=O)c1ccc2c(c1)c1c(n2C)CC[C@@H](C2CCOCC2)C1` [(R)—N-(4-(2-Methoxyethylamino)-4-oxobutyl)-N,9-dimethyl-3-(tetrahydro-2H-pyran-4-yl)-2,3,4,9-tetrahydro-1H-carbazole-6-carboxamide] had a pEC50 of 5.92 and an Emax of 93%.

Molecule `CN(CCCC(=O)NCC#N)C(=O)c1ccc2c(c1)c1c(n2C)CC[C@@H](C2CCOCC2)C1` [(R)—N-(4-(Cyanomethylamino)-4-oxobutyl)-N,9-dimethyl-3-(tetrahydro-2H-pyran-4-yl)-2,3,4,9-tetrahydro-1H-carbazole-6-carboxamide] showed a pEC50 of 7.15 and an Emax of 110%. As for `CONC(=O)CCCN(C)C(=O)c1ccc2c(c1)c1c(n2C)CC[C@@H](C2CCOCC2)C1` [(R)—N-(4-(Methoxyamino)-4-oxobutyl)-N,9-dimethyl-3-(tetrahydro-2H-pyran-4-yl)-2,3,4,9-tetrahydro-1H-carbazole-6-carboxamide], the pEC50 is 6.54 and the Emax was determined as 104%.

In turn, `CC(C)NC(=O)CC[C@@H](CO)N(C)C(=O)c1ccc2c(c1)c1c(n2C)CC[C@@H](C2CCOCC2)C1` [(R)—N-((S)-1-Hydroxy-5-(isopropylamino)-5-oxopentan-2-yl)-N,9-dimethyl-3-(tetrahydro-2H-pyran-4-yl)-2,3,4,9-tetrahydro-1H-carbazole-6-carboxamide] had a pEC50 of 6.88 and an Emax of 129%. Regarding `CNC(=O)CC[C@@H](CO)N(C)C(=O)c1ccc2c(c1)c1c(n2C)CC[C@@H](C2CCOCC2)C1` [(R)—N-((S)-1-Hydroxy-5-(methylamino)-5-oxopentan-2-yl)-N,9-dimethyl-3-(tetrahydro-2H-pyran-4-yl)-2,3,4,9-tetrahydro-1H-carbazole-6-carboxamide], the pEC50 was 7.00 and the Emax was determined as 124%. `CN(C(=O)c1ccc2c(c1)c1c(n2C)CC[C@@H](C2CCOCC2)C1)[C@H](CO)CCC(=O)NC1COC1` [(R)—N-((S)-1-Hydroxy-5-(oxetan-3-ylamino)-5-oxopentan-2-yl)-N,9-dimethyl-3-(tetrahydro-2H-pyran-4-yl)-2,3,4,9-tetrahydro-1H-carbazole-6-carboxamide] had a pEC50 of 6.70 and an Emax of 119%. Regarding `CN(C(=O)c1ccc2c(c1)c1c(n2C)CC[C@@H](C2CCOCC2)C1)[C@H](CO)CCC(=O)NCC(F)F` [(R)—N-((S)-5-(2,2-Difluoroethylamino)-1-hydroxy-5-oxopentan-2-yl)-N,9-dimethyl-3-(tetrahydro-2H-pyran-4-yl)-2,3,4,9-tetrahydro-1H-carbazole-6-carboxamide], the pEC50 is 6.97 and the Emax was 120%.

In turn, `CCN(CCCC(=O)NCCO)C(=O)c1ccc2c(c1)c1c(n2C)CC[C@@H](C2CCOCC2)C1` [(R)—N-Ethyl-N-(4-(2-hydroxyethylamino)-4-oxobutyl)-9-methyl-3-(tetrahydro-2H-pyran-4-yl)-2,3,4,9-tetrahydro-1H-carbazole-6-carboxamide] had a negative-log EC50 (pEC50) of 7.51 and an Emax of 113%. `CNC(=O)CCCN(C)C(=O)c1ccc2c(c1)c1c(n2C)CCC(C2CCOCC2)C1` (stereo not shown) [N,9-dimethyl-N-[3-(methylcarbamoyl)propyl]-6-(oxan-4-yl)-5,6,7,8-tetrahydrocarbazole-3-carboxamide] showed an Emax of 102%. In the case of `CN(CC(=O)NC1CC1)C(=O)c1ccc2c(c1)c1c(n2C)CCC(C2CCOCC2)C1` (stereo not shown) [N-(cyclopropylcarbamoylmethyl)-N,9-dimethyl-6-(oxan-4-yl)-5,6,7,8-tetrahydrocarbazole-3-carboxamide], the Emax stood at 121% and the “hCB1 EMax” value came out at 121%. Turning to `CCN(CC(=O)NC1CC1)C(=O)c1ccc2c(c1)c1c(n2C)CCC(C2CCOCC2)C1` (stereo not shown) [N-(cyclopropylcarbamoylmethyl)-N-ethyl-9-methyl-6-(oxan-4-yl)-5,6,7,8-tetrahydrocarbazole-3-carboxamide], the Emax was 124%. `CN(CCCC(=O)NCCF)C(=O)c1ccc2c(c1)c1c(n2C)CCC(C2CCOCC2)C1` (stereo not shown) [N-[3-(2-fluoroethylcarbamoyl)propyl]-N,9-dimethyl-6-(oxan-4-yl)-5,6,7,8-tetrahydrocarbazole-3-carboxamide] gave an Emax of 121%. As to `Cn1c2c(c3cc(C(=O)N4CC[C@H](NC(=O)C5CC5)C4)ccc31)CC(C1CCOCC1)CC2` (stereo partly drawn) [N-[(3S)-1-[9-methyl-6-(oxan-4-yl)5,6,7,8-tetrahydrocarbazole-3-carbonyl]pyrrolidin-3-yl]cyclopropanecarboxamide], the pEC50 was 5.94 and the Emax amounted to 116%. On to `CCN(CC(=O)NCCO)C(=O)c1ccc2c(c1)c1c(n2S(=O)(=O)CC)CCC(C2CCOCC2)C1` (stereo not shown) [N-ethyl-9-ethylsulfonyl-N-(2-hydroxyethylcarbamoylmethyl)-6-(oxan-4-yl)-5,6,7,8-tetrahydrocarbazole-3-carboxamide], for which the Emax is 111% and the “hCB1 EMax” value came out at 111%. As to `CCN(CC(=O)NC1CCOCC1)C(=O)c1ccc2c(c1)c1c(n2C)CCC(C2CCOCC2)C1` (stereo not shown) [N-ethyl-9-methyl-6-(oxan-4-yl)-N-(oxan-4-ylcarbamoylmethyl)-5,6,7,8-tetrahydrocarbazole-3-carboxamide], the pEC50 is < 5.95 and the Emax is > 88%. Take `CCN(CC(=O)NCCF)C(=O)c1ccc2c(c1)c1c(n2C)CCC(C2CCOCC2)C1` (stereo not shown) [N-ethyl-N-(2-fluoroethylcarbamoylmethyl)-9-methyl-6-(oxan-4-yl)-5,6,7,8-tetrahydrocarbazole-3-carboxamide]: the maximal response (Emax) amounted to 108%. As to `CCNC(=O)CN(CC)C(=O)c1ccc2c(c1)c1c(n2CC(C)(C)O)CCC(C2CCOCC2)C1` (stereo not shown) [N-ethyl-N-(ethylcarbamoylmethyl)-9-(2-hydroxy-2-methyl-propyl)-6-(oxan-4-yl)-5,6,7,8-tetrahydrocarbazole-3-carboxamide], the pEC50 is < 4.52 and the Emax was > 34%.

Turning to `CCNC(=O)CN(CC)C(=O)c1ccc2c(c1)c1c(n2CCO)CCC(C2CCOCC2)C1` (stereo not shown) [N-ethyl-N-(ethylcarbamoylmethyl)-9-(2-hydroxyethyl)-6-(oxan-4-yl)-5,6,7,8-tetrahydrocarbazole-3-carboxamide], the pEC50 was < 5.48 and the Emax is > 83%.

Take `CCNC(=O)CN(CC)C(=O)c1ccc2c(c1)c1c(n2CC(=O)NC)CCC(C2CCOCC2)C1` (stereo not shown) [N-ethyl-N-(ethylcarbamoylmethyl)-9-(methylcarbamoylmethyl)-6-(oxan-4-yl)-5,6,7,8-tetrahydrocarbazole-3-carboxamide]: the pEC50 was < 4.52 and the Emax is > 9%. The molecule `CCS(=O)(=O)n1c2c(c3cc(C(=O)N4CCC[C@@H](O)C4)ccc31)CC(C1CCOCC1)CC2` (stereo partly drawn) [[9-ethylsulfonyl-6-(oxan-4-yl)-5,6,7,8-tetrahydrocarbazol-3-yl]-[(3R)-3-hydroxy-1-piperidyl]methanone] gave a pEC50 of 5.75 and an Emax of 104%.
